# Measured values: patent US4748177A, “Guanine derivatives” (Warner-Lambert Company, priority 1985, dated 1988)
# System: T-cells
# Assay: standard test of selective cytotoxicity for T-cells in the presence of 2'-deoxyguanosine
# Assay type: cell-based
# Settings: in the presence of 10 μM of 2'-deoxyguanosine
# Protocol: […] activity was measured radiochemically by measuring the formation of [^14 -C]-hypoxanthine from [^14 -C]-inosine [Biomedicine, 33, 39 (1980)] using human erythrocyte as the enzyme source. The same compounds also were found by a standard test [Science, 214, 1137, (1981)] to be selectively cytotoxic for T-cells in the presence of 2'-deoxyguanosine at a similar concentration range. For example, 8-amino-9-[(4-methylphenyl)methyl]guanine is selectively cytotoxic to T-cells at a concentration of about 3.1 μM in the presence of 10 μM of 2'-deoxyguanosine. Similarly, 8-amino-9-[(4-methoxyphenyl)methyl]guanine is selectively cytotoxic to T-cells at concentration of about 1.1 μM in the presence of 10 μM of 2'-deoxyguanosine. On the other hand, these compounds were nontoxic to B-cells in the presence or absence of the same amount of 2'-deoxyguanosine. Since T-cells play a central role in immune response, use of the compounds of the invention is contemplated for the immunoregulation of rejection in transplantation and autoimmune disease such as rheumatoid arthritis, systemic lupus erythematosus, inflammatory bowel disease, cancer, juvenile diabetes, myasthenia gravis, multiple sclerosis, and viral diseases. […]
row,Compound,concentration at which selectively cytotoxic to T-cells
1,COc1ccc(Cn2c(N)nc3c(=O)[nH]c(N)nc32)cc1 [8-amino-9-[(4-methoxyphenyl)methyl]guanine],about 1.1 μM
2,Cc1ccc(Cn2c(N)nc3c(=O)[nH]c(N)nc32)cc1 [8-amino-9-[(4-methylphenyl)methyl]guanine],about 3.1 μM
